Values joined by “and” are separate entries in the source; they are usually repeats but may differ in a detail not shown here. Equal entries are not always repeated.
What was measured:
Lactobacillus plantarum [1] = assay: Phase 2c: survival of Lactobacillus plantarum after 30 minutes, 4 hours and 24 hours contact; format: cell-based; conditions: for Minimum concentration at which growth was observed (%): single agent, n = 3; for Growth observed after recovering viable Lactobacillus plantarum: replicates 1.1-3.2
Description: Three concentrations of each test agent were prepared following the results of Phase 2b. […] Testing was performed in triplicate.

Lactobacillus plantarum [2] = assay: Phase 2a: survival of Lactobacillus plantarum after 24 hours contact at stock concentrations
Description: Twenty-four-hour cultures of L. plantarum were harvested from MRSA and used to prepare a 1×10^8±5×10^7 CFUmL^−1 suspension in MRSB. The starting inoculum was confirmed by serial dilution and plating out the resultant suspensions. […] A 50 μL aliquot of each test agent was added to the wells of a 96-well plate. A 50 μL aliquot of L. plantarum inoculum was then added to the test agent and pipette mixed. The 96-well plates were incubated for 24 hours at 37° C.±2° C. and 5% CO2. Following incubation, 100 μL of DE-N was added to each well and pipette mixed. A 10 μL aliquot of each neutralised suspension was taken from each well and spot-plated onto MRSA. The plates were incubated for 24 hours at 37° C.±2° C. and 5% CO2. Following incubation, the presence or absence of growth on the plates was recorded. Testing was performed in triplicate.

Lactobacillus plantarum [3] = assay: Phase 2b: survival of Lactobacillus plantarum after 24 hours contact at a range of concentrations; conditions: for Minimum concentration at which growth was observed (%): single agent, n = 3; for Growth observed after recovering viable Lactobacillus plantarum: 24 hours, replicates 1.1-3.2
Description: Twenty-four-hour cultures of L. plantarum were harvested from MRSA and used to prepare a 1×10^8±5×10^7 CFUmL^−1 suspension in MRSB. The starting inoculum was confirmed by serial dilution and plating out the resultant suspensions. […] Each test agent was diluted 1:2 a total of eight times. A 50 μL aliquot of each test agent dilution was added to the wells of a 96-well plate. A 50 μL aliquot of L. plantarum inoculum was added to the test agent and pipette mixed. The 96-well plates were incubated for 24 hours at 37° C.±2° C. and 5% CO2. Following incubation, 100 μL of DE-N was added to each well and pipette mixed. A 10 μL aliquot of each neutralised suspension was taken from each well and spot-plated onto MRSA. The plates were incubated for 24 hours at 37° C.±2° C. and 5% CO2. Following incubation, the presence or absence of growth on the plates was recorded. Testing was performed in triplicate.

Substance: Copper gluconate
- concentration at which consistent growth was observed across all replicates (Lactobacillus plantarum [1]; 30 minutes contact time): ≤ 4.083%
- Minimum concentration at which growth was observed (%) (Lactobacillus plantarum [1]; 30 minutes contact time): 8.167%
- Minimum concentration at which growth was observed (%) (Lactobacillus plantarum [1]; 4 hours contact time): 0.510%
- Minimum concentration at which growth was observed (%) (Lactobacillus plantarum [1]; 24 hours contact time): 0.255%
- Growth observed after recovering viable Lactobacillus plantarum (Lactobacillus plantarum [1]; concentration 0.128 %, 24 hours): +
- Growth observed after recovering viable Lactobacillus plantarum (Lactobacillus plantarum [1]; concentration 0.255 %, 4 hours): +
- Growth observed after recovering viable Lactobacillus plantarum (Lactobacillus plantarum [1]; concentration 0.255 %, 24 hours): +
- Growth observed after recovering viable Lactobacillus plantarum (Lactobacillus plantarum [1]; concentration 0.510 %, 4 hours): +
- Growth observed after recovering viable Lactobacillus plantarum (Lactobacillus plantarum [1]; concentration 0.510 %, 24 hours): −
- Growth observed after recovering viable Lactobacillus plantarum (Lactobacillus plantarum [1]; concentration 0.510 %, 24 hours, listed as copper gluconate): unable to survive
- Growth observed after recovering viable Lactobacillus plantarum (Lactobacillus plantarum [1]; concentration 1.021 %, 4 hours): −
- Growth observed after recovering viable Lactobacillus plantarum (Lactobacillus plantarum [1]; concentration 1.021 %, 4 hours, listed as copper gluconate): unable to survive
- Growth observed after recovering viable Lactobacillus plantarum (Lactobacillus plantarum [1]; concentration 2.042 %, 30 minutes): +
- Growth observed after recovering viable Lactobacillus plantarum (Lactobacillus plantarum [1]; concentration 4.084 %, 30 minutes): +
- Growth observed after recovering viable Lactobacillus plantarum (Lactobacillus plantarum [1]; concentration 8.167 %, 30 minutes): − (4×) and + (2×)
- Growth observed after recovering viable Lactobacillus plantarum (Lactobacillus plantarum [1]; concentration 8.167 %, 30 minutes, listed as copper gluconate): Growth was observed in two of three replicates
- Growth (Lactobacillus plantarum [2]; stock concentration 8.167 %, n = 3): No
- Growth (Lactobacillus plantarum [2]; stock concentration 8.167 %, n = 3, listed as copper gluconate): No growth of L. plantarum was observed
- Minimum concentration at which growth was observed (%) (Lactobacillus plantarum [3]; 24 hours contact time): 0.255%
- Growth observed after recovering viable Lactobacillus plantarum (Lactobacillus plantarum [3]; concentration 0.064 %): +
- Growth observed after recovering viable Lactobacillus plantarum (Lactobacillus plantarum [3]; concentration 0.128 %): +
- Growth observed after recovering viable Lactobacillus plantarum (Lactobacillus plantarum [3]; concentration 0.255 %): +
- Growth observed after recovering viable Lactobacillus plantarum (Lactobacillus plantarum [3]; concentration 0.510 %): −
- Growth observed after recovering viable Lactobacillus plantarum (Lactobacillus plantarum [3]; concentration 1.021 %): −
- Growth observed after recovering viable Lactobacillus plantarum (Lactobacillus plantarum [3]; concentration 2.042 %): −
- Growth observed after recovering viable Lactobacillus plantarum (Lactobacillus plantarum [3]; concentration 4.084 %): −
- Growth observed after recovering viable Lactobacillus plantarum (Lactobacillus plantarum [3]; concentration 8.167 %): −

Substance: Zinc gluconate
- Minimum concentration at which growth was observed (%) (Lactobacillus plantarum [1]; 30 minutes contact time): 6.326%
- Minimum concentration at which growth was observed (%) (Lactobacillus plantarum [1]; 30 minutes contact time, listed as zinc gluconate): ≤ 6.326%
- Minimum concentration at which growth was observed (%) (Lactobacillus plantarum [1]; 4 hours contact time): 6.326%
- Minimum concentration at which growth was observed (%) (Lactobacillus plantarum [1]; 4 hours contact time, listed as zinc gluconate): ≤ 6.326%
- Minimum concentration at which growth was observed (%) (Lactobacillus plantarum [1]; 24 hours contact time): 6.326%
- Minimum concentration at which growth was observed (%) (Lactobacillus plantarum [1]; 24 hours contact time, listed as zinc gluconate): ≤ 6.326%
- Growth observed after recovering viable Lactobacillus plantarum (Lactobacillus plantarum [1]; concentration 1.5815 %, 30 minutes): +
- Growth observed after recovering viable Lactobacillus plantarum (Lactobacillus plantarum [1]; concentration 1.5815 %, 4 hours): +
- Growth observed after recovering viable Lactobacillus plantarum (Lactobacillus plantarum [1]; concentration 1.5815 %, 24 hours): +
- Growth observed after recovering viable Lactobacillus plantarum (Lactobacillus plantarum [1]; concentration 3.163 %, 30 minutes): +
- Growth observed after recovering viable Lactobacillus plantarum (Lactobacillus plantarum [1]; concentration 3.163 %, 4 hours): +
- Growth observed after recovering viable Lactobacillus plantarum (Lactobacillus plantarum [1]; concentration 3.163 %, 24 hours): +
- Growth observed after recovering viable Lactobacillus plantarum (Lactobacillus plantarum [1]; concentration 6.326 %, 30 minutes): +
- Growth observed after recovering viable Lactobacillus plantarum (Lactobacillus plantarum [1]; concentration 6.326 %, 4 hours): +
- Growth observed after recovering viable Lactobacillus plantarum (Lactobacillus plantarum [1]; concentration 6.326 %, 24 hours): +
- Growth (Lactobacillus plantarum [2]; stock concentration 6.326 %, n = 3): Yes
- Growth (Lactobacillus plantarum [2]; stock concentration 6.326 %, n = 3, listed as zinc gluconate): Growth of L. plantarum was observed
- Growth of L. plantarum (Lactobacillus plantarum [3]; 24 hours contact time, at all concentrations tested (Table 6)): Growth was observed
- Minimum concentration at which growth was observed (%) (Lactobacillus plantarum [3]; 24 hours contact time): 6.326%
- Growth observed after recovering viable Lactobacillus plantarum (Lactobacillus plantarum [3]; concentration 0.049 %): +
- Growth observed after recovering viable Lactobacillus plantarum (Lactobacillus plantarum [3]; concentration 0.099 %): +
- Growth observed after recovering viable Lactobacillus plantarum (Lactobacillus plantarum [3]; concentration 0.198 %): +
- Growth observed after recovering viable Lactobacillus plantarum (Lactobacillus plantarum [3]; concentration 0.395 %): +
- Growth observed after recovering viable Lactobacillus plantarum (Lactobacillus plantarum [3]; concentration 0.791 %): +
- Growth observed after recovering viable Lactobacillus plantarum (Lactobacillus plantarum [3]; concentration 1.582 %): +
- Growth observed after recovering viable Lactobacillus plantarum (Lactobacillus plantarum [3]; concentration 3.163 %): +
- Growth observed after recovering viable Lactobacillus plantarum (Lactobacillus plantarum [3]; concentration 6.326 %): +

Reference: US20230218666A1, “ANTIMICROBIAL COMBINATIONS” (MARVELBIOTICS LIMITED, priority 2020, published 2023)
